Measured values reported in patent US9034303B2, “Neuroprotective and neuro-restorative iron chelators and monoamine oxidase inhibitors and uses thereof” (priority 2010, dated 2015).

Assay: Follow-up stability experiment at 37° C. in PBS
Format: physicochemical
Experimental: Using high pressure liquid chromatography (HPLC), the stability of each of the tested compounds was determined by following its respective chemical character over time in either phosphate buffered saline (PBS) and/or 0.85% saline solution (sodium chloride). In each case, 0.5 mM of the tested compound in PBS or saline solution was incubated at 25° C. or at 37° C. for 20 hours or, in some cases, up to two days (48 hours).
In addition, in a follow-up experiment the instability of M30, and the stability of compounds 3, 7 and 8 was also confirmed at 37° C. in PBS, Table 2, below.

C#CCN(C)CCc1ccc(O)c2ncccc12 [Compound 3, 5-[2-(methyl-2-propyn-1-ylamino)ethyl]-8-quinolinol]
Amount of compound remaining (%) (3 hours): ≧100% | Amount of compound remaining (%) (8 hours): 95.7% | Amount of compound remaining (%) (24 hours): ≧100% | Amount of compound remaining (%) (48 hours): 87.2%
